Among the data in ChEMBL document CHEMBL5385898, “Recent advances in nuclear receptor-binding SET domain 2 (NSD2) inhibitors: An update and perspectives” (Eur J Med Chem, 2023) are IC50 and Kd values, retold here.

A short description of assay [1]: Inhibition of GST-tagged NSD3 (247 to 398 residues) (unknown origin) /PWWP1 (unknown origin) protein-protein interaction incubated for 60 mins by TR-FRET assay. Set-up: species or system Homo sapiens. Background: TR-FRET usually uses a lanthanide donor and a delayed reading to cut background.
For assay [2], the target named is T1, Histone-lysine N-methyltransferase NSD2 (Homo sapiens, UniProt O96028).
T1 sequence (O96028 whole entry): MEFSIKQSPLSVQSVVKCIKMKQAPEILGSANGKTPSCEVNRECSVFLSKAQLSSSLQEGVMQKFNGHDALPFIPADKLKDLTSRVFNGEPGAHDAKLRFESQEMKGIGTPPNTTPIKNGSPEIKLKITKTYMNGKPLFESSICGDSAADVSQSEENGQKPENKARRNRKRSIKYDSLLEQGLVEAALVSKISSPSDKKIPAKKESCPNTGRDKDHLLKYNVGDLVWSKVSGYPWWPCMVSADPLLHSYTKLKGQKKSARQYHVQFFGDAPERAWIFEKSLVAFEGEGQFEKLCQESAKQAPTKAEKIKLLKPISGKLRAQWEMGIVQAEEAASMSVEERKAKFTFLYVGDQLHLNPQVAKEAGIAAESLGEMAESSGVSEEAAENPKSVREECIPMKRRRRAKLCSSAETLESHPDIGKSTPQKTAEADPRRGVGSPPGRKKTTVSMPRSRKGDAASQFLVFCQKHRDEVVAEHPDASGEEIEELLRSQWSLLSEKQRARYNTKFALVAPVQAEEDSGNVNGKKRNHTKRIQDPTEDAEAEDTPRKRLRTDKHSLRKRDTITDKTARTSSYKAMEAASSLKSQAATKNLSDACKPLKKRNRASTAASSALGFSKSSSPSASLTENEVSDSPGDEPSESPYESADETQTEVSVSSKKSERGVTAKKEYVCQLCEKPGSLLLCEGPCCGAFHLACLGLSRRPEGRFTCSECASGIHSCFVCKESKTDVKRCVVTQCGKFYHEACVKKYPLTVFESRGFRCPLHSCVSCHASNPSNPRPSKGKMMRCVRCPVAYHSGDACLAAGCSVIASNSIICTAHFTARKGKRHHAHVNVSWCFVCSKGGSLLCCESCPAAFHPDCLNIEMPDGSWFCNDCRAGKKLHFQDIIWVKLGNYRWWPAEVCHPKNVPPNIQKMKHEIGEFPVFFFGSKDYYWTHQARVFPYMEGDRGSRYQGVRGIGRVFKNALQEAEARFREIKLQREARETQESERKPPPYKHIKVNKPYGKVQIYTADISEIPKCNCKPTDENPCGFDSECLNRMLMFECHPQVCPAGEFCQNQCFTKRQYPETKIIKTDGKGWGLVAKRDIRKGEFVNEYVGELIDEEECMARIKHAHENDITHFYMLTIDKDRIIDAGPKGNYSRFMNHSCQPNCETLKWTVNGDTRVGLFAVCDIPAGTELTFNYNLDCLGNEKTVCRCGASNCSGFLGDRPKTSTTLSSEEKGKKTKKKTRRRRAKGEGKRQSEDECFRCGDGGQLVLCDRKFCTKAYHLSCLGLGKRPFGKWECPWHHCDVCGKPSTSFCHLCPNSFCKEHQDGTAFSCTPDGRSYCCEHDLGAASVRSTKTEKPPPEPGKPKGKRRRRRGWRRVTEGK
Kind of assay: Inhibition of MMSET (unknown origin).

Assay [3] addresses T1, Histone-lysine N-methyltransferase NSD2. Kind of assay: Inhibition of NSD2 (unknown origin).
The target is the same in assay [4]. Kind of assay: Binding affinity to human biotinylated NSD2 (208 to 368 residues) expressed in Escherichia coli BL21(DE3) by SPR assay. In general terms: Surface plasmon resonance follows binding to a sensor surface in real time, without labels.
Assay [5] has the same target. Kind of assay: Inhibition of NSD2 (unknown origin) using H3K36 as substrate.
Assay [6] deals with Histone-lysine N-methyltransferase, H3 lysine-36 specific (Homo sapiens, UniProt Q96L73). Kind of assay: Inhibition of NSD1 (unknown origin) using H3K36 as substrate.
Sequence of Histone-lysine N-methyltransferase, H3 lysine-36 specific (Q96L73 whole entry): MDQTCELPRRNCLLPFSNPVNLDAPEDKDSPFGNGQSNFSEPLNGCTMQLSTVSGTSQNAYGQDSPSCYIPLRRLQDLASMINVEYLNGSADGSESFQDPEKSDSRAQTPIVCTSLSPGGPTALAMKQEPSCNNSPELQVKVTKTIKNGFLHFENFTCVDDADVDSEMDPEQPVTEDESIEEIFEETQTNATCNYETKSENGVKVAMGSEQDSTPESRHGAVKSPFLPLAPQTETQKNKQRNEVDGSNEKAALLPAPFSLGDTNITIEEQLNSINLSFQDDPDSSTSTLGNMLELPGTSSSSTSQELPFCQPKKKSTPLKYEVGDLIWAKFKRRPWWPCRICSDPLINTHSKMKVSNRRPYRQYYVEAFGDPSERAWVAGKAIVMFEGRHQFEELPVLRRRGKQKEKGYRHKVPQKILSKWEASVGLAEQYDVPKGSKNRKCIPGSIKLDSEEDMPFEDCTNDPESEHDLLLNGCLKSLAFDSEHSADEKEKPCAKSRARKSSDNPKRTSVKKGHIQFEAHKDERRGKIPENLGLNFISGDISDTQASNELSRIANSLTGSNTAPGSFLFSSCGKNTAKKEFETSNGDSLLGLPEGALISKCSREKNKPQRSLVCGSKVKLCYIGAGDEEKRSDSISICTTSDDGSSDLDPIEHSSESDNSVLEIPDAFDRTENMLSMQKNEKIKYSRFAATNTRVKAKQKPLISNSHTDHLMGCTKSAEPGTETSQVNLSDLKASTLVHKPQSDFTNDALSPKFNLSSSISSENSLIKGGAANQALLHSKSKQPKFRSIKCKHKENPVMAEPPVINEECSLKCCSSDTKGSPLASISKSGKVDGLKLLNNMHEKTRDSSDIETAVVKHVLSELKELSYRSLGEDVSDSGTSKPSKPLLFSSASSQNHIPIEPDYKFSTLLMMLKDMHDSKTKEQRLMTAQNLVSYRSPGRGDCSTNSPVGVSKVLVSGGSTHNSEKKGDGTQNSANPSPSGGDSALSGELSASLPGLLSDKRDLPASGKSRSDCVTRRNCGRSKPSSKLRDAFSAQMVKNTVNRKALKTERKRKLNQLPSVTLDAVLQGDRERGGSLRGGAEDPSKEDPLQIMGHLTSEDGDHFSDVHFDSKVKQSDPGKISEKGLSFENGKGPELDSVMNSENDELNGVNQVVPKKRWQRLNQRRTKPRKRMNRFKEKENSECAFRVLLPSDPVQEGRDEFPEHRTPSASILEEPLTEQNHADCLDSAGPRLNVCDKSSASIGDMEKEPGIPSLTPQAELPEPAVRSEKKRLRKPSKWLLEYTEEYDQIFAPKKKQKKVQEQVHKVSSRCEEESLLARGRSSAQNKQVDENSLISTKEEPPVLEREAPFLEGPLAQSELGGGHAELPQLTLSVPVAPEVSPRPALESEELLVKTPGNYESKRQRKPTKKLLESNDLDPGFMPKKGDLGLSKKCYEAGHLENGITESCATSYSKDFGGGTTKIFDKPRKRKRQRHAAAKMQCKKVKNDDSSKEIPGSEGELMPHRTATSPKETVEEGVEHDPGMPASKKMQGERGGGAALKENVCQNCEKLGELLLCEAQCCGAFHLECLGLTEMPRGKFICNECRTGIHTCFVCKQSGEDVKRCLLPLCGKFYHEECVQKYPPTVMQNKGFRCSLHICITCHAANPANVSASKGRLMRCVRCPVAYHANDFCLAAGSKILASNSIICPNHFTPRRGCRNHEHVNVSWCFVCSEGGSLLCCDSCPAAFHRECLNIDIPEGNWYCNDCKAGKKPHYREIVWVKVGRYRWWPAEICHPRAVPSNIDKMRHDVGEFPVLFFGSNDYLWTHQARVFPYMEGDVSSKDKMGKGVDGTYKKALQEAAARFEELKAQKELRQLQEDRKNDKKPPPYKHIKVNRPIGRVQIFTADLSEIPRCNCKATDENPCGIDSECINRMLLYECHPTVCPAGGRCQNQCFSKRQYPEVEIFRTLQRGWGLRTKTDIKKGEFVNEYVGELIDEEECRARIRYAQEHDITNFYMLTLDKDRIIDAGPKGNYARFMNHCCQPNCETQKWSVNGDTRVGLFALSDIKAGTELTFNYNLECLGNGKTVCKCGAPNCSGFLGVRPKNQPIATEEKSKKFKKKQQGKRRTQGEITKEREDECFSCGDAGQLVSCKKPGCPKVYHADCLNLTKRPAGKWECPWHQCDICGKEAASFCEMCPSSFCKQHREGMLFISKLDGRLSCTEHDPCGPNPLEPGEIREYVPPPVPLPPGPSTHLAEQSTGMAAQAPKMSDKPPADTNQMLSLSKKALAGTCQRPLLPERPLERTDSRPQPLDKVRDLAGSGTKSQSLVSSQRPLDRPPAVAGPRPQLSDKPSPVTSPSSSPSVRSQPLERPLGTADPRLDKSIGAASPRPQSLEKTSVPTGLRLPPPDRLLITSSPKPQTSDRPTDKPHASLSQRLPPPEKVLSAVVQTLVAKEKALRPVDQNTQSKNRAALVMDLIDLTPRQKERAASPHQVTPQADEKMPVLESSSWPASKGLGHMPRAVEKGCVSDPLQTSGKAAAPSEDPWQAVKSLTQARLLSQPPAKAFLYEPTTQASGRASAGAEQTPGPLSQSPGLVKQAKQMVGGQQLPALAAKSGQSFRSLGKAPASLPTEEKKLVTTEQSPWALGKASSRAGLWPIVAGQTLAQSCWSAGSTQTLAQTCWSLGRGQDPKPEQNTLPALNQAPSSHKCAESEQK
The target of assay [7] is T2, Histone-lysine N-methyltransferase NSD3 (Homo sapiens, UniProt Q9BZ95).
T2 sequence (Q9BZ95 whole entry): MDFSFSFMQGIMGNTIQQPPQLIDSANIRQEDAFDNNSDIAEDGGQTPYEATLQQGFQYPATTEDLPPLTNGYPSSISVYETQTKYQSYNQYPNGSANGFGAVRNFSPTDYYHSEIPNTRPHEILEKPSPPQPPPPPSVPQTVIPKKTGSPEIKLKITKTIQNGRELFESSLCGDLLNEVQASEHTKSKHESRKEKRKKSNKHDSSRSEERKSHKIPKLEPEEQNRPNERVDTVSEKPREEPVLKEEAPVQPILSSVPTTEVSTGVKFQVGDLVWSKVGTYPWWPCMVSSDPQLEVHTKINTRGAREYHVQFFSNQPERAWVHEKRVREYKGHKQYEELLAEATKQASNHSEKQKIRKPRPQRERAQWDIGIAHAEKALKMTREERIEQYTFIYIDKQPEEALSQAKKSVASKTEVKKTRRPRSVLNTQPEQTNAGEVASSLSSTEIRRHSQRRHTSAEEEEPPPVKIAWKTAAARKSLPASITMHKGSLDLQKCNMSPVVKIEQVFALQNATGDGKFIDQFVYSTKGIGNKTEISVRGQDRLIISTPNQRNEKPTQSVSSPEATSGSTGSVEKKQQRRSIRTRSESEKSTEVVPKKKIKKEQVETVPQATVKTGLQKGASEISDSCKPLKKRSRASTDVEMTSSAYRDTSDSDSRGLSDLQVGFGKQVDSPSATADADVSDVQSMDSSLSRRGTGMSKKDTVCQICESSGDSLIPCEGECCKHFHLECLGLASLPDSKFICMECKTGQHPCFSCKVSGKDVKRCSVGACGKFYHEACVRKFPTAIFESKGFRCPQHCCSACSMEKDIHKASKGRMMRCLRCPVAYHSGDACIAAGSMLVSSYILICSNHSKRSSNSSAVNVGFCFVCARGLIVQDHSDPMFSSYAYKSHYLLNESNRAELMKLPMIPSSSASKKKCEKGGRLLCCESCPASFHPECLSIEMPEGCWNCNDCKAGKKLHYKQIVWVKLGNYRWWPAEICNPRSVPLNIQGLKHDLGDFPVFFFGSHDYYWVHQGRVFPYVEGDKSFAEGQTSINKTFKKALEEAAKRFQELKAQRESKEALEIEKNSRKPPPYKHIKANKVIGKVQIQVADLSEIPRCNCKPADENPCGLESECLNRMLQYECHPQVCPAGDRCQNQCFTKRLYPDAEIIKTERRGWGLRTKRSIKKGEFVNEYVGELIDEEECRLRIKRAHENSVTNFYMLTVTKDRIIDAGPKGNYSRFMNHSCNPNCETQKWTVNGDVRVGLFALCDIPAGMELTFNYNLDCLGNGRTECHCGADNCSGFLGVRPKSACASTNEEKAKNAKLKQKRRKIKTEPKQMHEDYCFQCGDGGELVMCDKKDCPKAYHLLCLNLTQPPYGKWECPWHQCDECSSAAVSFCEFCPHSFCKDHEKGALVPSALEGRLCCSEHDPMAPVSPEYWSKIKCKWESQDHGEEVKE
Kind of assay: Inhibition of NSD3 (unknown origin) using H3K36 as substrate.

The target of assay [8] is T1, Histone-lysine N-methyltransferase NSD2. Kind of assay: Inhibition of NSD2 in human CGTH-W-1 cells assessed as reduction in H3K36me2 level incubated for 72 hrs by ELISA. The class given is cell-based.
The target is the same in assay [9]. Kind of assay: Inhibition of NSD2 in human KMS-11-Par cells assessed as reduction in H3K36me2 level incubated for 72 hrs by ELISA. The class given is cell-based. Background: In an ELISA, binding on a coated surface is turned into a signal by an enzyme label.
The next assay relates to PC-3. Kind of assay: Antiproliferative activity against human PC-3 cells. The class given is functional, cell-based.
The next assay concerns NCI-H2228. Kind of assay: Antiproliferative activity against human NCI-H2228 cells. The class given is functional, cell-based.
In a further assay the test system is MDA-MB-231. Kind of assay: Antiproliferative activity against human MDA-MB-231 cells. The class given is functional, cell-based.
The test system of another assay is SK-OV-3. Kind of assay: Antiproliferative activity against human SK-OV-3 cells. The assay is classed as functional, cell-based.
The target in assay [10] is T1, Histone-lysine N-methyltransferase NSD2. Kind of assay: Inhibition of 15N-labeled NSD2 (953 to 1240 residues) (unknown origin) expressed in Escherichia coli BL21 DE3 using H3K36 as substrate incubated for 60 mins by Alphascreen assay.

Take `Cc1cc(CN)cc(C)c1-c1ncn(C)c1-c1ccnc2cc(F)ccc12`: it took 0.203 µM to reach half-maximal inhibition in [1] (IC50).

For `NNc1nc2ccccc2nc1S`, the IC50 (as a rule, the concentration at which inhibition is half-maximal) in assay [2] is under 3 µM.

In [3], `N#Cc1cccc(NC(=O)Nc2ccc3nnsc3c2)c1` yielded an IC50 of 7.5 µM.

Take `O=C1COc2cc(C(=O)N(Cc3cccs3)C3CC3)ccc2N1`: binding in assay [4] was put at a Kd of 0.349 µM. That is a sub-micromolar value.

As for `C=CC(=O)Nc1cc(NC(=O)Nc2ccc3nnsc3c2)cc(C(=O)OC)c1`, the half-maximal inhibitory concentration (IC50) in assay [3] worked out at 8.1 µM.

For `O=C(NCCCN(Cc1nc2sc3c(c2c(=O)[nH]1)CCCC3)Cc1nc2sc3c(c2c(=O)[nH]1)CCCC3)c1cc2ccccc2c(=O)o1`, the IC50 in [5] amounted to 111 µM; in assay [6], 418 µM; in [7], 60 µM.

As to `O=C(Nc1cccc([N+](=O)[O-])c1)Nc1ccc2nnsc2c1`, 4.8 µM corresponded to half-maximal inhibition in assay [3] (IC50).

`CC(=O)c1ccc(-c2cc(NC(=O)Nc3ccc4nnsc4c3)cc(C(F)(F)F)c2)s1` registered an IC50 in assay [3] of 7.3 µM.

Take `Nc1ncnc2c1ncn2Cc1cc(-c2ccc(F)c(F)c2)ncc1N1CCC[C@](N)(c2ccccn2)C1`: the IC50 in [8] turned out to be 0.018 µM; in assay [9], 0.041 µM.

On to `COC(=O)c1cc(NC(=O)Nc2ccc3nnsc3c2)cc(C(=O)OC)c1`, for which the IC50 is 3.7 µM in [3]; 4.2 µM in the assay on PC-3; 6.8 µM in the assay with NCI-H2228; 5.1 µM in the assay with MDA-MB-231; 2.6 µM with SK-OV-3.

Turning to `CC(C)N(Cc1ccc(C(=O)Nc2ccncn2)cc1)C(=O)c1ccc2c(c1)OCC(=O)N2`, the Kd (as a rule, a measure of binding affinity in units of concentration) in assay [4] is over 20 µM.

As to `Cn1nnc2ccc(NC(=O)Nc3cccc([N+](=O)[O-])c3)cc21`, in assay [3], the IC50 was determined as 8.3 µM.

On to `CC[C@H](C)C(=O)[C@@]1(N)CCCN(c2cnc(-c3ccc(F)c(F)c3)cc2Cn2cnc3c(N)ncnc32)C1`, for which the IC50 in assay [8] was 0.04 µM; in [9], 0.034 µM.

Regarding `CNC(=O)[C@@]1(N)CCCN(c2cnc(-c3cccc(F)c3)cc2Cn2cnc3c(N)ncnc32)C1`, the 50% inhibitory concentration (IC50) in assay [8] worked out at 0.012 µM; in assay [9], 0.078 µM.

Compound `CC(C)CN[C@@H](CC[C@H](N)C(=O)O)C[C@H]1O[C@@H](n2cnc3c(N)ncnc32)[C@H](O)[C@@H]1O` yielded an IC50 in assay [10] of 1.8 µM.

Consider `Nc1ncnc2c1ncn2[C@@H]1O[C@H](C[C@@H](N)CC[C@H](N)C(=O)O)[C@@H](O)[C@H]1O` [SINEFUNGIN], for which the IC50 in assay [10] is 46 µM.
